The values that follow come from PubChem BioAssay (NCI).

Test systems include DMS 114 small cell lung; KM20L2 colon; LXFL 529 NSCLC; RXF-631 renal; XF 498 CNS; MDA-N; HOP-18 NSCLC; SNB-78 CNS.
Common to all, as to test: NCI-60 cell line screen, 48 h

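Method: 48-hour compound exposure of cells in 96-well plates, five concentrations, linear interpolation of endpoints. The concentration for 50% growth inhibition is given as GI50. At the TGI there is no net growth.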

`COC(=O)C(NC(=O)c1ccccc1)C(c1c(O)cc(O)cc1O)P(=O)(OC)OC` (stereo not given): the TGI in the test on DMS 114 small cell lung, in the test on KM20L2 colon, with LXFL 529 NSCLC, with RXF-631 renal and with XF 498 CNS was over 100 µM in each case.
Take `CCOC(=O)c1csc(NC(=O)C(C)N2CCOCC2)n1` (stereo not given): the TGI with MDA-N was over 100 µM.
Compound `NC(Cc1ccccc1CP(=O)(O)O)C(=O)O` (stereo not given) came in with a TGI with MDA-N of over 100 µM.
Turning to `c1cncc([O][Ge]([O]c2cccnc2)([O]c2cccnc2)[O]c2cccnc2)c1`, the GI50 in the test with HOP-18 NSCLC, in the test on KM20L2 colon, in the test with SNB-78 CNS and in the test with XF 498 CNS was over 100 µM each time. Besides, the TGI with HOP-18 NSCLC, in the test with KM20L2 colon, in the test with SNB-78 CNS and in the test on XF 498 CNS was over 100 µM throughout.
